Experimental data taken from ChEMBL document CHEMBL4507277.

Experiments:
[1] = system: Phosphatidylinositol 4,5-bisphosphate 3-kinase catalytic subunit alpha isoform (Homo sapiens), P42336 [I800L]; details: Compound concentration 1000.0 nM
[2] = biological target: D(1B) dopamine receptor (Homo sapiens) (UniProt P21918); details: Compound concentration 10.0 uM
[3] = biological target: Non-receptor tyrosine-protein kinase TNK1 (Homo sapiens) (UniProt Q13470); details: Compound concentration 1000.0 nM
[4] = biological target: Ephrin type-A receptor 1 (Homo sapiens) (UniProt P21709); details: Compound concentration 1000.0 nM
[5] = biological target: Non-receptor tyrosine-protein kinase TYK2 (Homo sapiens) (UniProt P29597); details: Compound concentration 1000.0 nM
[6] = biological target: Calcium/calmodulin-dependent protein kinase type 1B (Homo sapiens) (UniProt Q6P2M8); details: Compound concentration 1000.0 nM
[7] = biological target: Cyclin-dependent kinase 14 (Homo sapiens) (UniProt O94921); details: Compound concentration 1000.0 nM
[8] = system: Tyrosine-protein kinase ABL1 (Homo sapiens), P00519 [T315I]; details: Compound concentration 1000.0 nM
[9] = system: Serine/threonine-protein kinase B-raf (Homo sapiens), P15056 [V600E]; details: Compound concentration 1000.0 nM
[10] = biological target: Serine/threonine-protein kinase 38 (Homo sapiens) (UniProt Q15208); details: Compound concentration 1000.0 nM
[11] = biological target: Testis-specific serine/threonine-protein kinase 1 (Homo sapiens) (UniProt Q9BXA7); details: Compound concentration 1000.0 nM
[12] = system: Tyrosine-protein kinase ABL1 (Homo sapiens), P00519 [F317I]; details: Compound concentration 1000.0 nM
[13] = system: Mast/stem cell growth factor receptor Kit (Homo sapiens), P10721 [V559D,T670I]; details: Compound concentration 1000.0 nM
[14] = system: Receptor-type tyrosine-protein kinase FLT3 (Homo sapiens), P36888 [UNDEFINED MUTATION]; details: Compound concentration 1000.0 nM
[15] = biological target: Cyclin-dependent kinase 17 (Homo sapiens) (UniProt Q00537); details: Compound concentration 1000.0 nM
[16] = system: ALK tyrosine kinase receptor (Homo sapiens), Q9UM73 [C1156Y]; details: Compound concentration 1000.0 nM
[17] = system: Proto-oncogene tyrosine-protein kinase receptor Ret (Homo sapiens), P07949 [V804L]; details: Compound concentration 1000.0 nM
[18] = biological target: Serine/threonine-protein kinase PknB (Mycobacterium tuberculosis) (UniProt P9WI81); details: Compound concentration 1000.0 nM
[19] = biological target: Dual specificity protein kinase CLK3 (Homo sapiens) (UniProt P49761); details: Compound concentration 1000.0 nM
[20] = system: Leucine-rich repeat serine/threonine-protein kinase 2 (Homo sapiens), Q5S007 [G2019S]; details: Compound concentration 1000.0 nM
[21] = biological target: GABA-A receptor; anion channel (Rattus norvegicus) (UniProt O09028+P15431+P18506+P18508+P19969+P20236+P23574+P23576+P28471+P28473+P30191+P62813+P63079+P63138+Q91ZM7+Q9ES14); details: Compound concentration 10.0 uM
[22] = system: ALK tyrosine kinase receptor (Homo sapiens), Q9UM73 [L1196M]; details: Compound concentration 1000.0 nM
[23] = system: Phosphatidylinositol 4,5-bisphosphate 3-kinase catalytic subunit alpha isoform (Homo sapiens), P42336 [M1043I]; details: Compound concentration 1000.0 nM
[24] = biological target: Mitogen-activated protein kinase 3 (Homo sapiens) (UniProt P27361); details: Compound concentration 1000.0 nM
[25] = biological target: SRSF protein kinase 2 (Homo sapiens) (UniProt P78362); details: Compound concentration 1000.0 nM
[26] = biological target: Ephrin type-B receptor 6 (Homo sapiens) (UniProt O15197); details: Compound concentration 1000.0 nM
[27] = biological target: Casein kinase I isoform gamma-1 (Homo sapiens) (UniProt Q9HCP0); details: Compound concentration 1000.0 nM
[28] = system: Epidermal growth factor receptor (Homo sapiens), P00533 [UNDEFINED MUTATION]; details: Compound concentration 1000.0 nM
[29] = biological target: Serine/threonine-protein kinase DCLK3 (Homo sapiens) (UniProt Q9C098); details: Compound concentration 1000.0 nM
[30] = biological target: Receptor-interacting serine/threonine-protein kinase 1 (Homo sapiens) (UniProt Q13546); details: Compound concentration 1000.0 nM
[31] = biological target: Insulin-like growth factor 1 receptor (Homo sapiens) (UniProt P08069); details: Compound concentration 1000.0 nM
[32] = biological target: MAP kinase-activated protein kinase 2 (Homo sapiens) (UniProt P49137); details: Compound concentration 1000.0 nM
[33] = biological target: Ribosomal protein S6 kinase alpha-2 (Homo sapiens) (UniProt Q15349); details: Compound concentration 1000.0 nM
[34] = biological target: Dual serine/threonine and tyrosine protein kinase (Homo sapiens) (UniProt Q6XUX3); details: Compound concentration 1000.0 nM
[35] = biological target: Serine/threonine-protein kinase NLK (Homo sapiens) (UniProt Q9UBE8); details: Compound concentration 1000.0 nM
[36] = biological target: Ribosomal protein S6 kinase alpha-4 (Homo sapiens) (UniProt O75676); details: Compound concentration 1000.0 nM
[37] = biological target: Calcium/calmodulin-dependent protein kinase type II subunit alpha (Homo sapiens) (UniProt Q9UQM7); details: Compound concentration 1000.0 nM
[38] = biological target: Mitogen-activated protein kinase 10 (Homo sapiens) (UniProt P53779); details: Compound concentration 1000.0 nM
[39] = biological target: G protein-coupled receptor kinase 4 (Homo sapiens) (UniProt P32298); details: Compound concentration 1000.0 nM
[40] = biological target: Serine/threonine-protein kinase MRCK beta (Homo sapiens) (UniProt Q9Y5S2); details: Compound concentration 1000.0 nM
[41] = system: Fibroblast growth factor receptor 3 (Homo sapiens), P22607 [G697C]; details: Compound concentration 1000.0 nM
[42] = biological target: Muscle, skeletal receptor tyrosine-protein kinase (Homo sapiens) (UniProt O15146); details: Compound concentration 1000.0 nM
[43] = biological target: Calcium/calmodulin-dependent protein kinase type II subunit gamma (Homo sapiens) (UniProt Q13555); details: Compound concentration 1000.0 nM
Calcium/calmodulin-dependent protein kinase type II subunit gamma (Homo sapiens), sequence (Q13555 whole entry): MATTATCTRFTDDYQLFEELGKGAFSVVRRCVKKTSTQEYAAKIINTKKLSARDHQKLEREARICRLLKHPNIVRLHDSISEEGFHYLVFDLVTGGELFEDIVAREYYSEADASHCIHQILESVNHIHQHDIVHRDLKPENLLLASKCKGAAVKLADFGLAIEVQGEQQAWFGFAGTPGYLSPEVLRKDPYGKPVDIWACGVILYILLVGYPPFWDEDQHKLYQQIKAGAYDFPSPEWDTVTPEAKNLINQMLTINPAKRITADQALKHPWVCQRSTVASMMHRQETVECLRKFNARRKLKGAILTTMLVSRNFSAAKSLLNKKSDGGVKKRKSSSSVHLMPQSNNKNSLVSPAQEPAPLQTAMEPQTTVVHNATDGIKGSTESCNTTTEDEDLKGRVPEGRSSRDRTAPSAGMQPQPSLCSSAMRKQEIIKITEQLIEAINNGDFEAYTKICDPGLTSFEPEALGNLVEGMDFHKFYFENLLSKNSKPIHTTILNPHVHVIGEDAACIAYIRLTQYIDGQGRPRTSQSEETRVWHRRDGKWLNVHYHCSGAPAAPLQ

Ephrin type-B receptor 6 (Homo sapiens), sequence (O15197 whole entry, canonical isoform): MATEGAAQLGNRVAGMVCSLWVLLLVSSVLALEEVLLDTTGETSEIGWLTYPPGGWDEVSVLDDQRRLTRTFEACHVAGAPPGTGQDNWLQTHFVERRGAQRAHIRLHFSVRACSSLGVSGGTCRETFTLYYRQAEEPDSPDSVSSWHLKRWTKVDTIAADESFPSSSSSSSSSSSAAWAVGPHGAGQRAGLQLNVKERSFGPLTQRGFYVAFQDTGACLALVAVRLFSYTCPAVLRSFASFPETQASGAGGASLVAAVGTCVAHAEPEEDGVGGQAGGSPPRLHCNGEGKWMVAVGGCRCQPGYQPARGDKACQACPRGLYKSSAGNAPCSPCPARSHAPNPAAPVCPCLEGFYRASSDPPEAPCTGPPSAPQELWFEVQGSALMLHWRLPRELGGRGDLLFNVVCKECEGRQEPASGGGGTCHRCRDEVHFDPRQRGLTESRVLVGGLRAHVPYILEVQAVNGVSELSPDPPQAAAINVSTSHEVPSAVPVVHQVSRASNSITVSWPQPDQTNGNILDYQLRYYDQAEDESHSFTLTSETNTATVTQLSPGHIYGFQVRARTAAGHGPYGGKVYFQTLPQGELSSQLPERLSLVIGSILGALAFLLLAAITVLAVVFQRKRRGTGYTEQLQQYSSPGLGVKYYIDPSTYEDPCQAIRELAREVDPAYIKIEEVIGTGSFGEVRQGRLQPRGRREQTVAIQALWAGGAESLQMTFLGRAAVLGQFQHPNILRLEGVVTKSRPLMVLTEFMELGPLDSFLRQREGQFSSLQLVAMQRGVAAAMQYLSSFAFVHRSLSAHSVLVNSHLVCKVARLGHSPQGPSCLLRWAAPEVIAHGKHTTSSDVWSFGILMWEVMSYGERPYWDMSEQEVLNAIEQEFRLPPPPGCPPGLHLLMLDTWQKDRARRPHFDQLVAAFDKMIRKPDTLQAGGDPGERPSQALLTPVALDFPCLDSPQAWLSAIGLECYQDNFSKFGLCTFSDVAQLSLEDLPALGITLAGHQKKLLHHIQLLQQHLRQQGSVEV
Calcium/calmodulin-dependent protein kinase type II subunit alpha (Homo sapiens), sequence (Q9UQM7 whole entry): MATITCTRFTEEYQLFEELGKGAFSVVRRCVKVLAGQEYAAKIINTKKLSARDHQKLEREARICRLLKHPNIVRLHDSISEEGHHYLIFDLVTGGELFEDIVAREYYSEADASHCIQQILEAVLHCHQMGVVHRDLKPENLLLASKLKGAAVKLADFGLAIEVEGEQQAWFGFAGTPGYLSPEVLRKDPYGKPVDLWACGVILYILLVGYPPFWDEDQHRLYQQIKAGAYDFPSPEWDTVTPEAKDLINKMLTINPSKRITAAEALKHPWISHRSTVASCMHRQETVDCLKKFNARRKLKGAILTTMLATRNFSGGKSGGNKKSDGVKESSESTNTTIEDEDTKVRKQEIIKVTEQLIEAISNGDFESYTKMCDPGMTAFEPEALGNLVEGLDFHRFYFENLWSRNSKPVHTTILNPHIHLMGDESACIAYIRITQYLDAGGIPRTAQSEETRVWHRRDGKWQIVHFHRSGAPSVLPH
Muscle, skeletal receptor tyrosine-protein kinase (Homo sapiens), sequence (O15146 whole entry): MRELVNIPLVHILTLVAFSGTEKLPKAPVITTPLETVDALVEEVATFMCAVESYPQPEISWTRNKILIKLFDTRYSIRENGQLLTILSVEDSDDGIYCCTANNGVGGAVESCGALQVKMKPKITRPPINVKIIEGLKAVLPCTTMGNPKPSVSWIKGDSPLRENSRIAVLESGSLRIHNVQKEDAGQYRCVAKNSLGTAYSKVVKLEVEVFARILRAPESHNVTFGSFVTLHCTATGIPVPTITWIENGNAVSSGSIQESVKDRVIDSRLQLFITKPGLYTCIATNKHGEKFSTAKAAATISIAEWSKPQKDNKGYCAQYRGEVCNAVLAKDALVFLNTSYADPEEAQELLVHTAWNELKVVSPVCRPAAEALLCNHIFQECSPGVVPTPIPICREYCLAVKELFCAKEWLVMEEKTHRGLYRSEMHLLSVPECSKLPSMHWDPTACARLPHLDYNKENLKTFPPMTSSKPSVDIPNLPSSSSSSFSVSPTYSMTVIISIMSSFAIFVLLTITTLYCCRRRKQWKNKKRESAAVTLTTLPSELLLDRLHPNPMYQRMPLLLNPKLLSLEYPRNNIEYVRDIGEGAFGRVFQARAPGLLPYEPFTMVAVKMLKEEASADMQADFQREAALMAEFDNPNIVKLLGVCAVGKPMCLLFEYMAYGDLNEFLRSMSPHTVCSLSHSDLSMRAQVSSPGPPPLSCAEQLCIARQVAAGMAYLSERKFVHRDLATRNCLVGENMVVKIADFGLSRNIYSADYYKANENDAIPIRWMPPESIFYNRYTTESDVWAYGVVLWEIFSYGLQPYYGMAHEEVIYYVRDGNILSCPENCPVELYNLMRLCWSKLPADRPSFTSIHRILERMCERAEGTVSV
G protein-coupled receptor kinase 4 (Homo sapiens), sequence (P32298 whole entry, looked up): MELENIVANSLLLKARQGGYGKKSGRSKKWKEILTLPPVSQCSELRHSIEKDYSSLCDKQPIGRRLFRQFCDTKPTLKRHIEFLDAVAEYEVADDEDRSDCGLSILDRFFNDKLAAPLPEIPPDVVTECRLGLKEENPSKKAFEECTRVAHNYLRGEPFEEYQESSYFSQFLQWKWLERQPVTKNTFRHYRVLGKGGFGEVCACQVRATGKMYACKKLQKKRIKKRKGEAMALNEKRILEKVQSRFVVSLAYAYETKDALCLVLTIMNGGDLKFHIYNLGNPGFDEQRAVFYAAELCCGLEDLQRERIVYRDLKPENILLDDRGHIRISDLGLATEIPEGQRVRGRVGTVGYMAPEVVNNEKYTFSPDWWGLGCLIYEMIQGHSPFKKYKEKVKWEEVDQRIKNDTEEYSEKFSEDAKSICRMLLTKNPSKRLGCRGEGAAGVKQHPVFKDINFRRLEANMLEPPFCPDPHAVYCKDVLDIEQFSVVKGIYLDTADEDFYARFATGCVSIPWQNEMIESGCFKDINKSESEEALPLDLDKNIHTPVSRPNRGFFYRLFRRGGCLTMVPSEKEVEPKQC
Phosphatidylinositol 4,5-bisphosphate 3-kinase catalytic subunit alpha isoform (Homo sapiens), P42336 [I800L], sequence (P42336 whole entry I800L, canonical isoform): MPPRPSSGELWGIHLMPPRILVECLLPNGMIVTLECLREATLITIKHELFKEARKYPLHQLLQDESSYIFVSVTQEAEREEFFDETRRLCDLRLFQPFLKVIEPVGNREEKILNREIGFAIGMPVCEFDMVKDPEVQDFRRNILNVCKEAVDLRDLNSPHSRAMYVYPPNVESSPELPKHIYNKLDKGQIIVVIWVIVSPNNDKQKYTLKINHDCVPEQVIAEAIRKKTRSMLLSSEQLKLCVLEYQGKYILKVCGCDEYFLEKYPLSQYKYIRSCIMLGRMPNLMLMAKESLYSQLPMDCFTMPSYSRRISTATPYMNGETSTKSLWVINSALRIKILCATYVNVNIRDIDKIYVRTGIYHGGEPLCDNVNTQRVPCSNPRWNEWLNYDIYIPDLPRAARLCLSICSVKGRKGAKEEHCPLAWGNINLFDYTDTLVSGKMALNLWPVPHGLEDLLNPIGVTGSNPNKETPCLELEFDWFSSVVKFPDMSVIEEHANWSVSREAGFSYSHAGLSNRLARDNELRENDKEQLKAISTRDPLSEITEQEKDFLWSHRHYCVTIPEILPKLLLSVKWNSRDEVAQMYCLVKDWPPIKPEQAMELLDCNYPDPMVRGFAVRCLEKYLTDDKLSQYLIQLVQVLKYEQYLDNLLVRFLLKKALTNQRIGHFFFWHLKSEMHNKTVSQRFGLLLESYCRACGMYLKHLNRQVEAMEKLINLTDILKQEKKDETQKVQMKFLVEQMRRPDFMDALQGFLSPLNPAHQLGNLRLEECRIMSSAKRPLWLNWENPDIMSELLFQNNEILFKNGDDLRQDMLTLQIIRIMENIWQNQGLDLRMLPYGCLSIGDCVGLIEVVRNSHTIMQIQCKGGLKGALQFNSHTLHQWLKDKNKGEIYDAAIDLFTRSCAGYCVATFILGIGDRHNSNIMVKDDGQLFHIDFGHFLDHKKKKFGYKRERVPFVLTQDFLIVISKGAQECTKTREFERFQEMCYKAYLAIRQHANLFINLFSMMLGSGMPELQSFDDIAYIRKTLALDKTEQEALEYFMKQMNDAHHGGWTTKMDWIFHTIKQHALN
D(1B) dopamine receptor (Homo sapiens), sequence (P21918 whole entry): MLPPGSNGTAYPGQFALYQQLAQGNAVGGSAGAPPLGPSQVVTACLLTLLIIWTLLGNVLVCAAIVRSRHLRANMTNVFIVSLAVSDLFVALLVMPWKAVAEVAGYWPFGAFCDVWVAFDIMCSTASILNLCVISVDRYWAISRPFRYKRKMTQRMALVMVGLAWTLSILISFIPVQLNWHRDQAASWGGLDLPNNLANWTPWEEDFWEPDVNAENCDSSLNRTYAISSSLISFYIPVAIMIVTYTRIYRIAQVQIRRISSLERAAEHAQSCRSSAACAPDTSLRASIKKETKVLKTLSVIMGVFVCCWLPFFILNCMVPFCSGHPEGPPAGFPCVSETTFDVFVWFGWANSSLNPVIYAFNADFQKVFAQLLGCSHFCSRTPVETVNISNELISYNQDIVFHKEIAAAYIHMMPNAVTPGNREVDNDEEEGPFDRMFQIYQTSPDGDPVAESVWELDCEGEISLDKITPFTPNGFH

CCS(=O)(=O)c1cc2cc(C[C@](O)(CC(C)(C)c3ccc(F)cc3C(N)=O)C(F)(F)F)[nH]c2cn1
inactive: residual activity [1] 73% | inhibition [2] 34.2% | residual activity [3] 98% | residual activity [4] 100% | residual activity [5] 93% | residual activity [6] 77% | residual activity [7] 100% | residual activity [8] 85% | residual activity [9] 100% | residual activity [10] 91% | residual activity [11] 94% | residual activity [12] 95% | residual activity [13] 100% | residual activity [14] 86% | residual activity [15] 88% | residual activity [16] 96% | residual activity [17] 100% | residual activity [18] 95% | residual activity [19] 100% | residual activity [20] 100% | inhibition [21] -1.62% | residual activity [22] 87% | residual activity [23] 88% | residual activity [24] 93% | residual activity [25] 82% | residual activity [26] 100% | residual activity [27] 96% | residual activity [28] 89% | residual activity [29] 100% | residual activity [30] 100% | residual activity [31] 100% | residual activity [32] 100% | residual activity [33] 100% | residual activity [34] 86% | residual activity [35] 100% | residual activity [36] 94% | residual activity [37] 94% | residual activity [38] 100% | residual activity [39] 100% | residual activity [40] 100% | residual activity [41] 96% | residual activity [42] 94% | residual activity [43] 100%

CCS(=O)(=O)c1cc2cc(C[C@@](O)(CC(C)(C)c3ccc(F)cc3C(N)=O)C(F)(F)F)[nH]c2cn1
inactive: residual activity [1] 70% | inhibition [2] 32.4% | residual activity [3] 100% | residual activity [4] 99% | residual activity [5] 83% | residual activity [6] 85% | residual activity [7] 100% | residual activity [8] 74% | residual activity [9] 100% | residual activity [10] 76% | residual activity [11] 96% | residual activity [12] 78% | residual activity [13] 100% | residual activity [14] 73% | residual activity [15] 82% | residual activity [16] 100% | residual activity [17] 96% | residual activity [18] 84% | residual activity [19] 100% | residual activity [20] 100% | inhibition [21] 3.48% | residual activity [22] 100% | residual activity [23] 99% | residual activity [24] 98% | residual activity [25] 70% | residual activity [26] 100% | residual activity [27] 100% | residual activity [28] 94% | residual activity [29] 100% | residual activity [30] 92% | residual activity [31] 100% | residual activity [32] 100% | residual activity [33] 80% | residual activity [34] 100% | residual activity [35] 100% | residual activity [36] 71% | residual activity [37] 100% | residual activity [38] 100% | residual activity [39] 100% | residual activity [40] 99% | residual activity [41] 100% | residual activity [42] 60% | residual activity [43] 77%
